≈ marks a conversion by molar mass, not a printed value. Read-outs that look alike come from different tables or passages of the source. Marks after values point to notes of the source that are not given here. Positions of bridges follow the written chain, without caps; N, C: chain ends. Residues, ends and D or L forms follow the SMILES beside them. Chains are numbered I, II in the order given. *: point of attachment. Palmitoyl = CCCCCCCCCCCCCCCC(=O)*; Decanoyl = CCCCCCCCCC(=O)*; Octanoyl = CCCCCCCC(=O)*
What was measured:
[1] = system: Methicillin-resistant Staphylococcus aureus (MRSA); assay type: cell-based
Method: (§1) V2-dimer and all lipopeptides (FIG. 1A) used in this study were purchased from Mimotopes. All peptides were prepared by dissolving in sterile water to make 1000 μg/mL stock solutions. Minimum Inhibitory Concentration (MIC) determination was carried out in Mueller Hinton Broth (MHB) using the broth macro-dilution method as described by the Clinical and Laboratory Standards Institute (CLSI). Then, cation-adjusted MHB (CA-MHB) was used to prepare serial two fold dilutions of the compounds in test tubes. The concentration of the inoculums suspension was also adjusted to approximately 5×10^5 Colony Forming Units (CFU)/mL using MHB. Bacteria were incubated with the compounds for 24 hours at 35° C. prior to reading. In this study, Gram-positive strains used were Staphylococcus aureus DM4001 and Methicillin-resistant Staphylococcus aureus (MRSA) DM9808. Gram-negative strains used were Klebsiella pneumoniae DM4299, Pseudomonas aeruginosa ATCC23155 and Escherichia coli ATCC27922.
(§2) Methods used are as described in Example 1 above.

Pseudomonas aeruginosa = assay type: cell-based
Method: as §1, §2

Staphylococcus aureus = assay type: cell-based
Method: as §1, §2

[2] = system: Escherichia coli ATCC27922; assay type: cell-based
Method: as §1

[3] = system: Klebsiella pneumoniae DM4299; assay type: cell-based
Method: as §1

[4] = system: red blood cells (RBCs) of New Zealand white rabbits; assay: in vitro; assay type: cell-based, rabbit
Method: (§3) Fresh red blood cells (RBCs) of New Zealand white rabbits were used for this experiment. The RBCs obtained were centrifuged at 3000 rpm for 10 min. Supernatant was removed and washed twice with sterile PBS Buffer (20 mM, 100 mM NaCl, pH 7). The RBCs were further diluted to 8% stock solution in PBS. Peptides were dissolved in PBS with desired stock concentrations. When compounds were mixed with RBCs, desired concentration of 4% RBCs was obtained. For C14V2D and C16V2D, they were dissolved in Dimethylformamide ([…]; DMF) with desired stock concentrations. When compounds were mixed with RBCs, desired concentration of 4% RBCs and 0.5% DMF was obtained. DMF concentration of <1% was used as it had negligible hemolytic activity on RBCs. The mixtures were added to 1.5 mL centrifuge tubes and incubated at 37° C. for 1 h. After incubation, the blood was centrifuged at 3000 rpm for 3 min at 4° C. 100 μL of the supernatant was transferred into transparent 96-well plate. The absorbance was measured at 576 nm using a microplate reader (TECAN Infinite 200M Pro). 2% Triton X-100 was used as positive control. PBS was used as negative controls. The amount of hemoglobin released was calculated using the following equation: […]

in vitro [5] = assay type: cell-based; conditions: human
Method: The cytotoxicity of individual compounds screened was determined by the lactate dehydrogenase (LDH) assay. In brief, human corneal fibroblast cells were plated at a density of 10,000 cells per well in a 96-well opaque white plate (SPL Life Sciences Inc). Test compounds of various concentrations and controls were added to appropriate wells such that the final volume is 100 μl in each well. After 4 hours of exposure to the test compounds, the plates were removed from 37° C. incubator and equilibrated to 22° C. for 30 minutes. One hundred microliters of Cyto-TOX One reagent (Promega Inc. USA) was added to each well and the LDH assay was performed according to manufacturer's instructions. Fluorescence was assessed at an excitation wavelength of 560 nm and an emission wavelength of 590 nm using a micro-plate reader (Tecan Infinite 200 Pro, Switzerland). The cells exposed to 1% Triton X-100 were used as a positive control and treated as maximum releasing of LDH. The percent specific cytotoxicity of each compound was determined using the formula below (I=intensity):
% Cytotoxicity=[(Iexperiments)−(Inegative controls)]/[Ipositive controls)−(Inegative controls)]×100

in vitro [6] = assay type: cell-based; conditions: human; remark: listed apart in the source
Method: Cells were plated at a density of 10,000 cells per well in a 96-well opaque white plate (SPL Life Sciences Inc. Korea). Test compounds of various concentrations and controls were added to appropriate wells such that the final volume is 100 μl in each well. After 4 hours of exposure to the test compounds, the plates were removed from 37° C. incubator and equilibrated to 22° C. for 30 minutes. One hundred microliters of CellTiter-Glo reagent (Promega Inc. USA) was added to each well and the ATP assay was performed according to manufacturer's instructions. Luminescence was assessed using a micro-plate reader (Tecan Infinite 200 Pro, Switzerland). The cells exposed to 1% Triton X-100 were used as a positive control. The percent cell viable of each compound was determined using the formula below (L=Luminescence detected):
% Viability=[(Lnegative controls)−(Lexperiments)]/[(Lnegative controls)−(Lpositive controls)]×100

[7] = In vivo topical (corneal) toxicity test; conditions: C57BL6, mouse, topical or ocular, mice, 5 times/day for 4 days, read-out: Tolerate concentration
Method: (§4) Wild type C57BL6 (6-8 weeks old) (20-30 gram weigh) mice purchased from National University of Singapore were used for this study. All animals were utilized after 1 week acclimatization and put in air conditioned rooms with controlled temperature (23±2° C.), 12 hours light-dark cycle and humidity (55-60%). All animals were conducted in compliance with the Association for Research in Vision and Ophthalmology (ARVO) statement for the Use of Animals in Ophthalmic, and Vision Research, the guide for the Care and Use of laboratory animals (National Research Council) and under the supervision of Singhealth Experimental Medical Centre (SEMC). To investigate the corneal toxicity, three normal and healthy wild type mice had been chosen randomly and treated with 1 mg/ml and 3 mg/ml of C8V2D in 10 mM PBS. C8V2D was applied topically 5 times/day for 4 days. Cornea clarity had been checked by slit lamp microscopy for everyday follow-up to day 4 after application. To study the acute systemic toxicity, C8V2D was administrated via intravenous and intraperitoneal routes. Two mice have been chosen for each route and moitored carefully through 24 hours to observe and record any mortality, morbidity or toxicity signs. Gross necropsy would be done on any mortality or moribund animal.

[8] = In vivo acute systemic toxicity test; conditions: C57BL6, mouse, mice, read-out: Tolerate concentration
Method: as §4

in vitro [9] = assay type: cell-based, rabbit; conditions: New Zealand white, rabbit, pH 7
Method: as §3

S. aureus (DM4001) = assay: Membrane damage, LIVE/DEAD BacLight assay; assay type: cell-based, Staphylococcus aureus; conditions: FIG. 7
Method: The extent of bacterial membrane damage was assessed using LIVE/DEAD BacLight Bacterial Viability Kit (Molecular Probes, Invitrogen) which utilises both SYTO 9 green-fluorescent nucleic acid stain and the red-fluorescent nucleic acid stain, propidium iodide in their different ability to penetrate healthy bacterial cells. SYTO9 dye could penetrate bacteria with intact and damaged membrane but propidium iodide could only penetrate bacteria with damaged bacteria thereby causing a reduction in the SYTO 9 stain's fluorescence when both dyes are present. Thus, bacteria with intact cell membranes stain fluorescent green whereas bacteria with damaged membranes stain fluorescent red. Briefly, clinical isolate S. aureus (DM4001) was collected at an early exponential growth phase and washed twice with 0.9% saline solution (live culture). A portion of the culture was resuspended in 70% 2-propanol to prepare dead culture with fully permeabilised membrane. […] Using TECAN infinite 200 microplate reader, the wavelength for excitation was fixed at 485 nm to obtain the emission spectrum from 500 nm to 700 nm. The green to red ratio (G/R) was determined using the following formula: [formula] % of membrane damage was quantified using a G/R ratio standard curve generated using bacterial mixture of 0, 10%, 50%, 90% and 100% live culture suspension. […]

[10] = Dissolution in PBS for hemolytic assay; assay type: physicochemical
Method: as §3

MIC [1] [µM]	MIC (Pseudomonas aeruginosa) [µM]	MIC (Staphylococcus aureus) [µM]	MIC [2] [µM]	MIC [3] [µM]	HC10 [4]	Compound	HC10 ([4]; red cells of rabbit, 1 h) [µg/mL]	CC50 at 4 h (in vitro [5]) [µM]	CC50 at 4 h (in vitro [6]) [µM]	MTD at 96 h [7] [mg/kg]	MTD at 24 h ([8]; Intravenous (i.v.)) [mg/kg]	MTD at 24 h ([8]; ip, Intraperitoneal (i.p.)) [mg/kg]	hemolysis at 1 h, 20 mg/mL (in vitro [9]) [%]	membrane integrity (S. aureus (DM4001))	dissolution in PBS [10]
1.20 (≈ 3.12 µg/mL)	2.40 (≈ 6.24 µg/mL)	2.40 (≈ 6.24 µg/mL)	4.80 (≈ 12.5 µg/mL)	2.40 (≈ 6.24 µg/mL)	>2000^a ug/mL	CCCCCCCCCC(=O)N[C@@H](CCCNC(=N)N)C(=O)NCC(=O)N[C@@H](CCCNC(=N)N)C(=O)N[C@@H](CCCCN)C(=O)N[C@H](C(=O)N[C@H](C(=O)N[C@@H](CCCNC(=N)N)C(=O)N[C@@H](CCCNC(=N)N)C(=O)NCCCC[C@H](NC(=O)[C@H](CCCNC(=N)N)NC(=O)[C@H](CCCNC(=N)N)NC(=O)[C@@H](NC(=O)[C@@H](NC(=O)[C@H](CCCCN)NC(=O)[C@H](CCCNC(=N)N)NC(=O)CNC(=O)[C@H](CCCNC(=N)N)NC(=O)CCCCCCCCC)C(C)C)C(C)C)C(=O)N[C@@H](CCCCN)C(=O)O)C(C)C)C(C)C [Peptide C10-V2D, (C9H19—CO—NH—RGRKVVRR)2KK] (I: Decanoyl-RGRKVVRRKK-OH / II: Decanoyl-RGRKVVRR; amide I:9-II:C)							3.3		
18.07 (≈ 38.7 µg/mL)	>36.13	36.13 (≈ 77.4 µg/mL)	9.03 (≈ 19.4 µg/mL)	>36.13	^c114.0 ± 37.9 ug/mL	CCCCCCCCCCCCCCCC(=O)N[C@@H](CCCNC(=N)N)C(=O)NCC(=O)N[C@@H](CCCNC(=N)N)C(=O)N[C@@H](CCCCN)C(=O)N[C@H](C(=O)N[C@H](C(=O)NCCCC[C@H](NC(=O)[C@@H](NC(=O)[C@@H](NC(=O)[C@H](CCCCN)NC(=O)[C@H](CCCNC(=N)N)NC(=O)CNC(=O)[C@H](CCCNC(=N)N)NC(=O)CCCCCCCCCCCCCCC)C(C)C)C(C)C)C(=O)N[C@@H](CCCCN)C(=O)O)C(C)C)C(C)C [Peptide C16-V2D, (C15H31—CO—NH—RGRKVV)2KK] (I: Palmitoyl-RGRKVVKK-OH / II: Palmitoyl-RGRKVV; amide I:7-II:C; C-terminus assumed)								reduced membrane integrity	^cValue in DMF. C16V2D could not dissolve in PBS.

Compound	MIC [1] [µM]	MIC (Pseudomonas aeruginosa) [µM]	MIC (Staphylococcus aureus) [µM]	MIC [2] [µM]	MIC [3] [µM]	HC10 [4]	HC10 ([4]; red cells of rabbit, 1 h) [µg/mL]	CC50 at 4 h (in vitro [5]) [µM]	CC50 at 4 h (in vitro [6]) [µM]	MTD at 96 h [7] [mg/kg]	MTD at 24 h ([8]; Intravenous (i.v.)) [mg/kg]	MTD at 24 h ([8]; ip, Intraperitoneal (i.p.)) [mg/kg]	hemolysis at 1 h, 20 mg/mL (in vitro [9]) [%]	membrane integrity (S. aureus (DM4001))	dissolution in PBS [10]
CCCCCCCC(=O)N[C@@H](CCCNC(=N)N)C(=O)NCC(=O)N[C@@H](CCCNC(=N)N)C(=O)N[C@@H](CCCCN)C(=O)N[C@H](C(=O)N[C@H](C(=O)N[C@@H](CCCNC(=N)N)C(=O)N[C@@H](CCCNC(=N)N)C(=O)NCCCC[C@H](NC(=O)[C@H](CCCNC(=N)N)NC(=O)[C@H](CCCNC(=N)N)NC(=O)[C@@H](NC(=O)[C@@H](NC(=O)[C@H](CCCCN)NC(=O)[C@H](CCCNC(=N)N)NC(=O)CNC(=O)[C@H](CCCNC(=N)N)NC(=O)CCCCCCC)C(C)C)C(C)C)C(=O)N[C@@H](CCCCN)C(=O)O)C(C)C)C(C)C [Peptide C8-V2D, (C7H15—CO—NH—RGRKVVRR)2KK] (I: Octanoyl-RGRKVVRRKK-OH / II: Octanoyl-RGRKVVRR; amide I:9-II:C)	1.23 (≈ 3.13 µg/mL)	2.46 (≈ 6.26 µg/mL)	2.46 (≈ 6.26 µg/mL)	4.92 (≈ 12.5 µg/mL)	2.46 (≈ 6.26 µg/mL)		>2000	> 3000	> 2000	≥ 3	6.25	100			

— patent US20150231199A1, “PEPTIDES AND THEIR USES” (priority 2012, published 2015)
